# Experimental data as given in ChEMBL document CHEMBL3352495, “Discovery of the 1,7-diazacarbazole class of inhibitors of checkpoint kinase 1” (Bioorg Med Chem Lett, 2014).
# Legend:
# Format in all cases: ADME, organism-based
# [1] = Oral bioavailability in NCR mouse at 25 mg/kg administered as solution; details: in vivo
# [2] = Oral bioavailability in Sprague-Dawley rat at 5 mg/kg administered as solution; details: in vivo
# [3] = Cmax in NCR mouse at 25 mg/kg, po administered as solution; design: dose 25 mg/kg, route oral; details: in vivo
# [4] = Oral bioavailability in CD1 mouse at 5 mg/kg administered as solution; details: in vivo
# [5] = AUC in NCR mouse at 25 mg/kg, po administered as solution; design: dose 25 mg/kg, route oral; details: plasma
# Rattus norvegicus [6] = experiment: Dose normalized AUC in Sprague-Dawley rat at 5 mg/kg, po administered as solution; design: dose 5 mg/kg, route oral; details: in vivo
# [7] = Cmax in CD1 mouse at 5 mg/kg, po administered as solution; design: dose 5 mg/kg, route oral; details: in vivo
# [8] = Cmax in NCR mouse at 25 mg/kg, po administered as suspension; design: dose 25 mg/kg, route oral; details: in vivo
# [9] = AUC in NCR mouse at 25 mg/kg, po administered as suspension; design: dose 25 mg/kg, route oral; details: plasma
# Mus musculus [10] = experiment: Dose normalized AUC in NCR mouse at 25 mg/kg, po administered as suspension; design: dose 25 mg/kg, route oral; details: in vivo
# [11] = Half life in CD1 mouse at 5 mg/kg, po administered as suspension; design: dose 5 mg/kg, route oral; details: in vivo
# [12] = Half life in Sprague-Dawley rat at 1 mg/kg, iv; design: dose 1 mg/kg, route intravenous; details: in vivo
# [13] = AUC in Sprague-Dawley rat at 1 mg/kg, iv; design: dose 1 mg/kg, route intravenous; details: plasma
# [14] = AUC in Sprague-Dawley rat at 5 mg/kg, po administered as solution; design: dose 5 mg/kg, route oral; details: plasma
# [15] = Oral bioavailability in NCR mouse at 25 mg/kg administered as suspension; details: in vivo
# [16] = Half life in NCR mouse at 25 mg/kg, po administered as suspension; design: dose 25 mg/kg, route oral; details: in vivo
# [17] = Cmax in Sprague-Dawley rat at 5 mg/kg, po administered as solution; design: dose 5 mg/kg, route oral; details: in vivo
# [18] = Oral bioavailability in CD1 mouse at 5 mg/kg administered as suspension; details: in vivo
# Rattus norvegicus [19] = experiment: Dose normalized AUC in Sprague-Dawley rat at 1 mg/kg, iv; design: dose 1 mg/kg, route intravenous; details: in vivo
# [20] = Half life in CD1 mouse at 0.5 mg/kg, iv; design: dose 0.5 mg/kg, route intravenous; details: in vivo
# Mus musculus [21] = experiment: Dose normalized AUC in CD1 mouse at 0.5 mg/kg, iv; design: dose 0.5 mg/kg, route intravenous; details: in vivo
# [22] = Half life in NCR mouse at 25 mg/kg, po administered as solution; design: dose 25 mg/kg, route oral; details: in vivo
# Mus musculus [23] = experiment: Dose normalized AUC in CD1 mouse at 5 mg/kg, po administered as solution; design: dose 5 mg/kg, route oral; details: in vivo
# [24] = Half life in Sprague-Dawley rat at 5 mg/kg, po administered as solution; design: dose 5 mg/kg, route oral; details: in vivo
# [25] = AUC in CD1 mouse at 5 mg/kg, po administered as suspension; design: dose 5 mg/kg, route oral; details: plasma
# Mus musculus [26] = experiment: Dose normalized AUC in CD1 mouse at 5 mg/kg, po administered as suspension; design: dose 5 mg/kg, route oral; details: in vivo
# [27] = Half life in CD1 mouse at 5 mg/kg, po administered as solution; design: dose 5 mg/kg, route oral; details: in vivo
# Mus musculus [28] = experiment: Dose normalized AUC in NCR mouse at 25 mg/kg, po administered as solution; design: dose 25 mg/kg, route oral; details: in vivo
# [29] = Cmax in CD1 mouse at 5 mg/kg, po administered as suspension; design: dose 5 mg/kg, route oral; details: in vivo
# [30] = Clearance in Sprague-Dawley rat at 1 mg/kg, iv; design: dose 1 mg/kg, route intravenous; details: in vivo
# [31] = AUC in CD1 mouse at 0.5 mg/kg, iv; design: dose 0.5 mg/kg, route intravenous; details: plasma
# [32] = Clearance in CD1 mouse at 0.5 mg/kg, iv; design: dose 0.5 mg/kg, route intravenous; details: in vivo
# [33] = AUC in CD1 mouse at 5 mg/kg, po administered as solution; design: dose 5 mg/kg, route oral; details: plasma
smiles,measurement,setting,value
CN1CCN(c2ccc(-c3cnc4[nH]c5cnc(C#N)cc5c4c3)cc2)CC1,bioavailability,[1],50%
same,bioavailability,[2],62%
same,Cmax,[3],2510 nM
same,bioavailability,[4],54%
same,AUC,[5],8.46 µM·h
same,AUC/dose,Rattus norvegicus [6],0.42 kg·h/L
same,Cmax,[7],450 nM
same,Cmax,[8],910 nM
same,AUC,[9],9.37 µM·h
same,AUC/dose,Mus musculus [10],0.14 kg·h/L
same,half-life,[11],2.9 h
same,half-life,[12],1.8 h
same,AUC,[13],1.81 µM·h
same,AUC,[14],5.64 µM·h
same,bioavailability,[15],55%
same,half-life,[16],4 h
same,Cmax,[17],930 nM
same,bioavailability,[18],50%
same,AUC/dose,Rattus norvegicus [19],0.67 kg·h/L
same,half-life,[20],5.8 h
same,AUC/dose,Mus musculus [21],0.25 kg·h/L
same,half-life,[22],2.1 h
same,AUC/dose,Mus musculus [23],0.14 kg·h/L
same,half-life,[24],2.3 h
same,AUC,[25],1.72 µM·h
same,AUC/dose,Mus musculus [26],0.13 kg·h/L
same,half-life,[27],1.6 h
same,AUC/dose,Mus musculus [28],0.13 kg·h/L
same,Cmax,[29],200 nM
same,clearance,[30],27 mL/min/kg
same,AUC,[31],0.34 µM·h
same,clearance,[32],67 mL/min/kg
same,AUC,[33],1.85 µM·h
